From patent publication US10016354B2, “Compositions containing polymeric, ionic compounds comprising imidazolium groups” (BASF SE, priority 2011, dated 2018) come the findings set out here.

The subject of experiment [1] is Staphylococcus aureus ATCC 29213. Kind of experiment: Minimum Inhibitory Concentration (MIC) test. The conditions noted are these: Table 3, known antibiotics as control; 24 h at 37° C. It is filed as cell-based.
In experiment [2] the test system is Pseudomonas aeruginosa ATCC 27853. In words: Minimum Inhibitory Concentration (MIC) test. The class given is cell-based. The conditions noted are these: Table 3, known antibiotics as control; 24 h at 37° C.

Structures are written as SMILES. ≈ marks a conversion by molar mass, not a printed value. Where only a bound is given, the exact number is not on record here.

`CC1=C(C(=O)O)N2C(=O)[C@@H](NC(=O)[C@H](N)c3ccccc3)[C@H]2SC1` [Cephalexine]: the “MIC Staphylococcus aureus ATCC 29213 = DSM 2569” value in experiment [1] is 4 µg/mL (≈ 0.0115 mM). Besides, in experiment [2], the “MIC Pseudomonas aeruginosa ATCC 27853 = DSM 1117” value was >4096 µg/mL.
